Test results reported in patent US9359298B2, “Cajanine structure analogous compound, preparation method and use” (INSTITUTE OF MEDICINAL BIOTECHNOLOGY, CHINESE ACADEMY OF …, priority 2011, dated 2016).
In brackets after ≈: the same amount, converted by molar mass. Where two headings read alike, the source gives them in different places.

Tests used:
Assay type in all cases: cell-based
[1] = test system: Influenza A virus (hanfang359/95); test: Determination of anti-influenza virus activity (CPE in MDCK cells); details: for IC50: Influenza A virus, MDCK, 36 h; for anti-influenza virus activities compared with the lead compound cajanine: statement in words
[2] = test system: Coxsackie virus B6; test: Coxsackie virus activity assay (CPE in Vero cells); details: Vero, read-out: COX-B6 IC50, Vero cells, about 100TCID50, CPE, Reed-Muench
[3] = test system: HCV; test: Anti-hepatitis C virus (HCV) activity assay (HCV RNA in Huh7.5 cells); details: for EC50: Hepatitis C virus, Huh7.5, 72 h, Huh7.5 cells, 72 h, HCV RNA by RT-PCR, Reed-Muench, read-out: HCV EC50; for anti-HCV viral activity: statement in words
Protocol: Inoculate Huh7.5 cells into 96-well plates to a density of 3×10^4 cells/cm^2, culture for 24h, infect the cells with 45 IU/cell HCV supernatant, meanwhile, add drug solutions or solvent control for treatment.

[4] = test system: HIV-1 III B virus; test: Anti-HIV activity assay (P24 antigen in MT-4 cells); details: for IC50: Human immunodeficiency virus 1, MT4, 96 h, read-out: HIV IC50; for anti-HIV viral activity: statement in words
[5] = test system: PC12 cells; test: Neuroprotective activity assay, serum-deprived injury to PC12 cells (MTT); details: for viability at 10 µM: Rattus norvegicus, PC-12, 48 h, 10 μM test compound, 48 h, Control 100.0 ± 9.2, Model 69.3 ± 4.1, read-out: serum-deprived (surviving PC12 cells, MTT 570 nm); for protective effect on serum-deprived injury to PC12 cells: statement in words
Protocol: (§1) Discard the original culture media from confluent monolayers of PC12 cells (simulated neuronal cells), add DMEM complete medium with 5% FBS, 5% horse serum gently beat upon the cells with a pipette to completely disperse them, inoculate 100 μl cell suspension at a density of […] per well to 96 hole plates treated with poly-lysine (0.1 mg/ml) in advance, culture for 24h. Divide the experimenting cells into control group, model group and dosing groups. Add complete medium to the control group. Model groups includes rotenone group and serum-deprived group, add rotenone to the corresponding modules with a final concentration of 4 μM rotenone to take effect on the cells for 48 h, add serum-deprived groups with serum-free DMEM medium to take effect on the cells for 48 h. Dosing groups also includes two groups, one using rotenone module as model, another using serum-deprived module as model, and both add in 10 μM test compounds during modeling. 48h later, add 10 μl 5 mg/ml MTT, subsequently discard the supernatant 4h later and add in 150 μl DMSO, measure 570 nm absorbance to represent the numbers of surviving cells.

[6] = test system: PC12 cells; test: Neuroprotective activity assay, rotenone injury to PC12 cells (MTT); details: for viability at 10 µM: Rattus norvegicus, PC-12, 48 h, 10 μM test compound, 4 μM rotenone, 48 h, Control 100.0 ± 8.9, Model 73.2 ± 7.8, read-out: rotenone (surviving PC12 cells, MTT 570 nm); for protective effect on rotenone injury to PC12 cells: statement in words
Protocol: as §1

[7] = MT-4 cells, HIV-1 III B 100TCID50, 96 h, P24 antigen

SMILES | IC50 [1] [µg/mL] | anti-influenza virus activities compared with the lead compound cajanine [1] | IC50 [2] [µg/mL] | EC50 [3] [µg/mL] | IC50 [4, 7] [µg/mL] | viability at 10 µM [5] [%] | protective effect on serum-deprived injury to PC12 cells [5] | viability at 10 µM [6] [%] | protective effect on rotenone injury to PC12 cells [6] | anti-HCV viral activity [3] | anti-HIV viral activity [4] | IC50 [4] [µg/mL]
COc1cc(/C=C/c2cc(O)ccn2)c(C(=O)O)c(O)c1CC=C(C)C [Compound 1w, 2-hydroxy-3-isopentenyl-4-methoxy-6-[(E)-2-(4-hydroxypyrid-2-yl)ethenyl]benzoic acid] | 0.19 (≈ 0.535 µM) | significantly stronger than the lead compound cajanine | 0.54 (≈ 1.52 µM) | 2.06 (≈ 5.8 µM) | 2.87 (≈ 8.08 µM) | 89.3 ± 5.4 | the strongest activities | 88.9 ± 2.5 | the strongest activities |  |  | 
COc1cc(/C=C/c2ccc(O)cn2)c(C(=O)O)c(O)c1CC=C(C)C [Compound 1y] | 4.25 (≈ 12 µM) |  | 5.84 (≈ 16.4 µM) | 0.86 (≈ 2.42 µM) | 0.63 (≈ 1.77 µM) | 87.6 ± 1.6 |  | 89.7 ± 1.9 |  | stronger anti-HIV, HCV viral activities | stronger anti-HIV, HCV viral activities | 
COC(=O)c1c(/C=C/c2ccccc2)cc(OC)cc1OC [Compound 6, methyl 2,4-dimethoxy-6-[(E)-styryl]benzoate] | > 2.05 |  | > 2.06 | > 12.2 |  | 62.4 ± 7 |  | 74.4 ± 5.2 |  |  |  | > 2.06
COC(=O)c1c(/C=C/c2ccccc2)cc(OC)c(CC=C(C)C)c1O [Compound 8, methyl 2-hydroxy-3-isopentenyl-4-methoxy-6-[(E)-styryl]-benzoate] | 0.69 (≈ 1.96 µM) |  | 3.56 (≈ 10.1 µM) | 0.79 (≈ 2.24 µM) | 1.06 (≈ 3.01 µM) | 76.6 ± 5.8 |  | 78.9 ± 5.7 |  | stronger anti-HIV, HCV viral activities | stronger anti-HIV, HCV viral activities | 
COC(=O)c1c(/C=C/c2ccc(OC)cc2)cc(OC)c(CC=C(C)C)c1O [Compound 8c, methyl 2-hydroxy-3-isopentenyl-4-methoxy-6-[(E)-4-methoxystyryl]-benzoate] | > 2.06 |  | 4.79 (≈ 12.5 µM) | 3.06 (≈ 8 µM) | 1.99 (≈ 5.2 µM) | 67.3 ± 10 |  | 71.9 ± 6.1 |  |  |  | 
COC(=O)c1c(/C=C/c2c(OC)cccc2OC)cc(OC)c(CC=C(C)C)c1O [Compound 8d, methyl 2-hydroxy-3-isopentenyl-4-methoxy-6-[(E)-2,6-dimethoxystyryl]-benzoate] | > 6.17 |  | > 9.26 | 5.17 (≈ 12.5 µM) | 0.86 (≈ 2.08 µM) | 82 ± 3.2 | the strongest activities | 84.4 ± 3.6 | the strongest activities |  |  | 
CC/C=C/c1cc(OC)c(CC=C(C)C)c(O)c1C(=O)OC [Compound 8h, methyl 2-hydroxy-3-isopentenyl-4-methoxy-6-[(E)-buten-1-yl]-benzoate] | 1.92 (≈ 6.31 µM) |  | > 2.06 | 1.42 (≈ 4.67 µM) | 2.66 (≈ 8.74 µM) | 35.4 ± 10.6 |  | 72.4 ± 4.3 |  |  |  | 
COC(=O)c1c(/C=C(\C)c2ccccc2)cc(OC)c(CC=C(C)C)c1O [Compound 8i, methyl 2-hydroxy-3-isopentenyl-4-methoxy-6-[(E)-2-phenylpropen-1-yl]-benzoate] | > 2.47 |  | 6.89 (≈ 18.8 µM) | 3.47 (≈ 9.47 µM) | 3.8 (≈ 10.4 µM) | 46.4 ± 16.6 |  | 69.4 ± 2.6 |  |  |  | 
COC(=O)c1c(/C=C/CCc2ccccc2)cc(OC)c(CC=C(C)C)c1O [Compound 8l, methyl 2-hydroxy-3-isopentenyl-4-methoxy-6-[(E)-4′-phenylbuten-1′-yl]benzoate] | 5.75 (≈ 15.1 µM) |  | > 6.17 | 5.95 (≈ 15.6 µM) | 5.17 (≈ 13.6 µM) | 51.1 ± 17 |  | 64.7 ± 1.8 |  |  |  | 
COC(=O)c1c(/C=C/c2ccccc2)cc(OC)c(C/C=C(\C)CCC=C(C)C)c1O [Compound 8o, methyl 2-hydroxy-3-(3′,7′-dimethyloctadien-2′,6′-yl)-4-methoxy-6-[(E)-styryl]benzoate] | 0.82 (≈ 1.95 µM) | significantly stronger than the lead compound cajanine | 2.36 (≈ 5.61 µM) | 0.92 (≈ 2.19 µM) | 2.96 (≈ 7.04 µM) | 69.3 ± 5.6 |  | 70.6 ± 6.3 |  |  |  | 
COC(=O)c1c(/C=C/C2CCCCC2)cc(OC)c(CC=C(C)C)c1O [Compound 8p, methyl 2-hydroxy-3-isopentenyl-4-methoxy-6-[(E)-2-cyclohexyl-vinyl]benzoate] | 10.3 (≈ 28.9 µM) |  | > 2.06 | 11.4 (≈ 31.7 µM) | 21.1 (≈ 58.9 µM) | 82.3 ± 5.6 | the strongest activities | 84.6 ± 5.9 | the strongest activities |  |  | 
COC(=O)c1c(/C=C/c2ccc(OC(C)=O)cc2)cc(OC)c(CC=C(C)C)c1O [Compound 8q, methyl 2-hydroxy-3-isopentenyl-4′-methoxy-6-[(E)-4-acetoxystyryl]benzoate] | 8.23 (≈ 20.1 µM) |  | 5.23 (≈ 12.7 µM) | 7.63 (≈ 18.6 µM) | 2.1 (≈ 5.12 µM) | 79.8 ± 5.8 | the strongest activities | 80.5 ± 6.5 | the strongest activities |  |  | 
COC(=O)c1c(/C=C/c2ccncc2)cc(OC)c(CC=C(C)C)c1O [Compound 8r] | 4.65 (≈ 13.2 µM) |  | 6.43 (≈ 18.2 µM) | 3.14 (≈ 8.88 µM) | 4.01 (≈ 11.3 µM) | 74.5 ± 5.7 |  | 69.8 ± 8.4 |  |  |  | 
COC(=O)/C(=C\c1cc(OC)c(CC=C(C)C)c(O)c1C(=O)OC)c1ccccc1 [Compound 8s] | 0.24 (≈ 0.585 µM) |  | 3.52 (≈ 8.58 µM) | 0.84 (≈ 2.05 µM) | 0.52 (≈ 1.27 µM) | 79.8 ± 5.2 |  | 76.8 ± 5.4 |  | stronger anti-HIV, HCV viral activities | stronger anti-HIV, HCV viral activities | 
COC(=O)c1c(/C=C/c2cc(OC)cc(OC)n2)cc(OC)c(CC=C(C)C)c1O [Compound 8x, methyl 2-hydroxy-3-isopentenyl-4-methoxy-6-[(E)-2-(4,6-dimethoxypyrid-2-yl)ethenyl]benzoate] | 0.65 (≈ 1.57 µM) | significantly stronger than the lead compound cajanine | 4.58 (≈ 11.1 µM) | 1.87 (≈ 4.52 µM) | 0.79 (≈ 1.91 µM) | 79.8 ± 2.6 |  | 76.5 ± 1.8 |  |  |  | 
COC(=O)c1c(/C=C/c2cccc(OC)n2)cc(OC)c(CC=C(C)C)c1O [Compound 8y, methyl 2-hydroxy-3-isopentenyl-4-methoxy-6-[(E)-2-(6-methoxy-pyrid-2-yl)ethenyl]benzoate] | 2.14 (≈ 5.58 µM) |  | 7.12 (≈ 18.6 µM) | 4.33 (≈ 11.3 µM) | 6.8 (≈ 17.7 µM) | 49.8 ± 2.6 |  | 48.9 ± 6.5 |  |  |  | 
COc1cc(/C=C/c2ccccc2)c(C(=O)OCC(O)CO)c(O)c1CC=C(C)C (stereo not drawn) [Compound 9e, 2,3-dihydroxypropyl2-hydroxy-3-isopentenyl-4-methoxy-6-[(E)-styryl]benzoate] | 0.1 (≈ 0.242 µM) | significantly stronger than the lead compound cajanine | 0.21 (≈ 0.509 µM) | 0.66 (≈ 1.6 µM) | 0.73 (≈ 1.77 µM) | 91.3 ± 2.4 | the strongest activities | 90.8 ± 4.3 | the strongest activities | stronger anti-HIV, HCV viral activities | stronger anti-HIV, HCV viral activities | 
COc1cc(/C=C/c2ccccc2)c(C(=O)NC2CCNCC2)c(O)c1CC=C(C)C [Compound 9f] | 0.31 (≈ 0.737 µM) |  | 0.24 (≈ 0.571 µM) | 6.09 (≈ 14.5 µM) | 0.14 (≈ 0.333 µM) | 58.9 ± 2.6 |  | 68.5 ± 4.9 |  |  |  | 
COc1cc(/C=C/c2ccccc2)c(C(=O)Nc2ccccc2)c(O)c1CC=C(C)C [Compound 9g, N-phenyl-2-hydroxy-3-isopentenyl-4-methoxy-6-[(E)-styryl]benzamide] | 0.84 (≈ 2.03 µM) |  | 1.59 (≈ 3.85 µM) | 5.1 (≈ 12.3 µM) | 0.79 (≈ 1.91 µM) | 89.4 ± 2.3 | the strongest activities | 87.4 ± 1.9 | the strongest activities |  |  | 
